Test system: T1, Pseudomonas fluorescens lipase (PFL)
T1 construct: commercial lipase powder (Amano Enzyme Ltd., Nagoya, Japan), used without further treatment; free enzyme
Experiment: colorimetric p-nitrophenol release at […] nm; initial rates, linear regression (Lineweaver-Burk)
Format: biochemical
Conditions: free enzyme; standard assay phosphate buffer pH 7.5, 40 °C, with Triton and acetone

Km: 760 µM
Structure (SMILES): CCCC(=O)Oc1ccc([N+](=O)[O-])cc1 [p-nitrophenol butyrate]

— PMC11207022, “Enhanced Enzymatic Performance of Immobilized Pseudomonas fluorescens Lipase on ZIF-8@ZIF-67 and Its Application to the Synthesis of Neryl Acetate with Transesterification Reaction” (Molecules, 2024)
